Active and inactive are the calls of the source. The rule behind the calls is not given here.
Key:
HCT-116 [1] = assay: Antiproliferative activity against human HCT-116 cells assessed as reduction in cell proliferation incubated for 72 hrs by fluorescence based microplate reader analysis; format: functional; conditions: dose 1-64 µM
HCT-116 [2] = assay: Antiproliferative activity against human HCT-116 cells assessed as reduction in tumor spheroid growth at 64 uM measured after 12 days by imaging analysis relative to control; format: functional; design: scale not given: the % may be the effect or the level left; conditions: time 12 day
HCT-116 [3] = assay: Antiproliferative activity against NTMT1 knockout human HCT-116 cells at 1 to 64 uM incubated for 72 hrs by fluorescence based microplate reader analysis; format: functional, cell-based; conditions: dose 1-64 µM
[4] = target: T1, N-terminal Xaa-Pro-Lys N-methyltransferase 1 (Homo sapiens, UniProt Q9BV86); assay: Inhibition of NTMT1 (unknown origin) using SPKRIAKRRS(CONH2) peptide as substrate assessed as SAH production incubated for 10 mins in the presence of SAM by HPLC analysis
T1 sequence (Q9BV86 whole entry): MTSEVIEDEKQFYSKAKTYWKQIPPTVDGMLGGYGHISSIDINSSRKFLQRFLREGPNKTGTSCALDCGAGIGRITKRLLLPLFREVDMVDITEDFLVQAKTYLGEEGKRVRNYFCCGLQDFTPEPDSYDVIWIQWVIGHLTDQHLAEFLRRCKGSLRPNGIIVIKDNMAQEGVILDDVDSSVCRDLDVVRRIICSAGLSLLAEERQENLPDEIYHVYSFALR

HCT-116 [5] = assay: Cytotoxicity against human HCT-116 cells assessed as reduction in cell viability at 1 to 64 uM incubated for 24 hrs by WST-8 assay; format: toxicity, cell-based; conditions: hct-116, 24 h, dose 1-64 µM
HCT-116 [6] = assay: Antiproliferative activity against human HCT-116 cells cultured in PG-S assessed as decrease in cell number at 64 uM measured after 3 days by AO/PI staining based cell counter analysis relative to control; format: functional; design: scale not given: the % may be the effect or the level left; conditions: time 3 day
[7] = Upregulation of CALR in human HCT-116 cells assessed as fold change at 25 uM incubated for 24 hrs by Western blot analysis relative to control; format: functional
HT-29 = assay: Cytotoxicity against human HT-29 cells assessed as reduction in cell viability at 1 to 64 uM measured after 24 hrs by WST-8 assay; format: toxicity, cell-based; conditions: ht-29, 24 h, dose 1-64 µM
[8] = target: T2, von Hippel-Lindau disease tumor suppressor/N-terminal Xaa-Pro-Lys N-methyltransferase 1 (Homo sapiens) (UniProt P40337+Q9BV86); assay: PROTAC activity at VHL/NTMT1 in human HT-29 cells assessed as reduction in NTMT1 protein level at 50 uM incubated for 24 hrs by Western blot analysis; format: cell-based
T2 sequence (P40337 whole entry, looked up, one chain of several): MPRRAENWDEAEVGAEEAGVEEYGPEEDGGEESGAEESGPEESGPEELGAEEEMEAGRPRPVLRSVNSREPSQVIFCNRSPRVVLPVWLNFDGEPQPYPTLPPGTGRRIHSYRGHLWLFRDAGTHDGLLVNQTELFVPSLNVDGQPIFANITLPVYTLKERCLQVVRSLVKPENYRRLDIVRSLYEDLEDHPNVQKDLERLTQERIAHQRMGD

[9] = target: T2, von Hippel-Lindau disease tumor suppressor/N-terminal Xaa-Pro-Lys N-methyltransferase 1 (Homo sapiens); assay: PROTAC activity at VHL/NTMT1 in human HCT-116 cells assessed as reduction in NTMT1 protein level at 50 uM incubated for 24 hrs by Western blot analysis; format: cell-based
HCT-116 [10] = assay: Antiproliferative activity against human HCT-116 cells assessed as inhibition of cell proliferation at 1 to 64 uM incubated for 72 hrs by fluorescence based microplate reader analysis relative to control; format: functional; conditions: dose 1-64 µM
[11] = target: T3, N-terminal Xaa-Pro-Lys N-methyltransferase 1 (Homo sapiens) (UniProt Q9BV86); assay: Potency index, ratio of DC541 IC50 to test compound IC50 for inhibition of NTMT1 (unknown origin) using SPKRIAKRRS(CONH2) peptide as substrate assessed as SAH production incubated for 10 mins in the presence of SAM by HPLC analysis
T3 sequence (whole entry): T1 sequence (Q9BV86 whole entry)

[12] = target: T2, von Hippel-Lindau disease tumor suppressor/N-terminal Xaa-Pro-Lys N-methyltransferase 1 (Homo sapiens); assay: PROTAC activity at VHL/NTMT1 in human HT-29 cells assessed as reduction in NTMT1 protein level incubated for 24 hrs by Western blot analysis; format: cell-based
[13] = target: T2, von Hippel-Lindau disease tumor suppressor/N-terminal Xaa-Pro-Lys N-methyltransferase 1 (Homo sapiens); assay: PROTAC activity at VHL/NTMT1 in human HCT-116 cells co-expressing eGFP fusion protein assessed as reduction in NTMT1 protein level by measuring reduction in eGFP fluorescence at 100 uM incubated for 24 hrs by fluorescence microscopic analysis; format: cell-based
[14] = target: T2, von Hippel-Lindau disease tumor suppressor/N-terminal Xaa-Pro-Lys N-methyltransferase 1 (Homo sapiens); assay: PROTAC activity at VHL/NTMT1 in human HT-29 cells assessed as reduction in NTMT1 protein level at 50 uM measured upto 6 hrs by Western blot analysis; format: cell-based
[15] = target: T4, von Hippel-Lindau disease tumor suppressor/N-terminal Xaa-Pro-Lys N-methyltransferase 2 (Homo sapiens) (UniProt P40337+Q5VVY1); assay: PROTAC activity at VHL/NTMT2 in human HCT-116 cells assessed as reduction in NTMT2 protein level at 5 to 50 uM incubated for 24 hrs by Western blot analysis; format: cell-based; conditions: dose 5-50 µM
T4 sequence (P40337 whole entry, looked up): as the sequence (P40337 whole entry, looked up, one chain of several) above
T4 sequence (Q5VVY1 whole entry, looked up): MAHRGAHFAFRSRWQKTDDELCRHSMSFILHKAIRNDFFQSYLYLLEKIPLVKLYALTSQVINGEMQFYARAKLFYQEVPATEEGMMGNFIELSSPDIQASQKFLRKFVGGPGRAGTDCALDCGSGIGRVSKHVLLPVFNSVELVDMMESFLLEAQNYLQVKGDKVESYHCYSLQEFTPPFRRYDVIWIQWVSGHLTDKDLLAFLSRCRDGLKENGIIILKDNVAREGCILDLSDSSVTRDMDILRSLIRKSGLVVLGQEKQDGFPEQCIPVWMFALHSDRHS

HCT-116 [16] = assay: Induction of cell cycle arrest in human HCT-116 cells assessed as G0/G1 phase cells at 64 uM incubated for 3 days by PI staining based flow cytometric analysis (reference value: 65%); format: functional; conditions: time 3 day
[17] = target: T2, von Hippel-Lindau disease tumor suppressor/N-terminal Xaa-Pro-Lys N-methyltransferase 1 (Homo sapiens); assay: PROTAC activity at VHL/NTMT1 in human HT-29 cells assessed as reduction in NTMT1 protein level by measuring maximal efficacy at 50 uM measured after 24 hrs by Western blot analysis relative to control; format: cell-based
[18] = target: T2, von Hippel-Lindau disease tumor suppressor/N-terminal Xaa-Pro-Lys N-methyltransferase 1 (Homo sapiens); assay: PROTAC activity at VHL/NTMT1 in human HCT-116 cells assessed as reduction in NTMT1 protein level at 50 uM preincubated with compound for 24 hrs followed by compound washout and measured after 20 hrs by Western blot analysis; format: cell-based
HCT-116 [19] = assay: Downregulation of NTMT1 in human HCT-116 cells at 25 uM incubated for 24 hrs by Western-blot analysis; format: functional, cell-based
[20] = target: T2, von Hippel-Lindau disease tumor suppressor/N-terminal Xaa-Pro-Lys N-methyltransferase 1 (Homo sapiens); assay: PROTAC activity at VHL/NTMT1 in human HCT-116 cells assessed as reduction in NTMT1 protein level at 50 uM preincubated with MG132 for 2 hrs followed by compound addition and measured after 24 hrs by Western blot analysis; format: cell-based
[21] = target: T4, von Hippel-Lindau disease tumor suppressor/N-terminal Xaa-Pro-Lys N-methyltransferase 2 (Homo sapiens); assay: PROTAC activity at VHL/NTMT2 in human HT-29 cells assessed as reduction in NTMT2 protein level at 5 to 50 uM incubated for 24 hrs by Western blot analysis; format: cell-based; conditions: dose 5-50 µM
[22] = target: T2, von Hippel-Lindau disease tumor suppressor/N-terminal Xaa-Pro-Lys N-methyltransferase 1 (Homo sapiens); assay: PROTAC activity at VHL/NTMT1 in human HCT-116 cells assessed as reduction in NTMT1 protein level at 50 uM preincubated with MLN4924 for 2 hrs followed by compound addition and measured after 24 hrs by Western blot analysis; format: cell-based
HCT-116 [23] = assay: Antiproliferative activity against human HCT-116 cells cultured in PG-S assessed as viable cells upto 64 uM measured after 3 days by AO/PI staining based cell counter analysis relative to control; format: functional; conditions: time 3 day, up to 64 µM
[24] = target: T2, von Hippel-Lindau disease tumor suppressor/N-terminal Xaa-Pro-Lys N-methyltransferase 1 (Homo sapiens); assay: PROTAC activity at VHL/NTMT1 in human HCT-116 cells assessed as reduction in NTMT1 protein level incubated for 24 hrs by Western blot analysis; format: cell-based
[25] = target: T2, von Hippel-Lindau disease tumor suppressor/N-terminal Xaa-Pro-Lys N-methyltransferase 1 (Homo sapiens); assay: PROTAC activity at VHL/NTMT1 in human HT-29 cells assessed as reduction in NTMT1 protein level by measuring maximal efficacy at 0.1 to 50 uM incubated for 24 hrs by Western blot analysis relative to control; format: cell-based; conditions: dose 0.1-50 µM
HCT-116 [26] = assay: Antiproliferative activity against human HCT-116 cells cultured in PG-S assessed as decrease in cell number measured after 3 days by AO/PI staining based cell counter analysis; format: functional; conditions: time 3.0 day
HCT-116 [27] = assay: Upregulation of CALR in human HCT-116 cells at 25 uM incubated for 24 hrs by LC-MS based proteomic analysis; format: functional, cell-based
HCT-116 [28] = assay: Downregulation of NTMT1 in human HCT-116 cells at 25 uM incubated for 24 hrs by LC-MS based proteomic analysis; format: functional, cell-based
[29] = target: T2, von Hippel-Lindau disease tumor suppressor/N-terminal Xaa-Pro-Lys N-methyltransferase 1 (Homo sapiens); assay: PROTAC activity at VHL/NTMT1 in human HT-29 cells assessed as reduction in NTMT1 protein level at 50 uM preincubated with compound for 24 hrs followed by compound washout and measured after 20 hrs by Western blot analysis; format: cell-based
HCT-116 [30] = assay: Induction of cell cycle arrest in human HCT-116 cells assessed as decrease in S phase cells at 64 uM incubated for 3 days by PI staining based flow cytometric analysis; format: functional; conditions: time 3.0 day
HCT-116 [31] = assay: Induction of cell cycle arrest in human HCT-116 cells assessed as accumulation of cells at G0/G1 phase incubated for 3 days by PI staining based flow cytometric analysis; format: functional; conditions: time 3.0 day
[32] = target: T2, von Hippel-Lindau disease tumor suppressor/N-terminal Xaa-Pro-Lys N-methyltransferase 1 (Homo sapiens); assay: PROTAC activity at VHL/NTMT1 in human HCT-116 cells assessed as reduction in NTMT1 protein level by measuring maximal efficacy at 0.1 to 50 uM incubated for 24 hrs by Western blot analysis relative to control; format: cell-based; conditions: dose 0.1-50 µM
[33] = target: T2, von Hippel-Lindau disease tumor suppressor/N-terminal Xaa-Pro-Lys N-methyltransferase 1 (Homo sapiens); assay: PROTAC activity at VHL/NTMT1 in human HCT-116 cells assessed as reduction in NTMT1 protein level by measuring maximal efficacy at 50 uM measured at 3 hrs by Western blot analysis relative to control; format: cell-based

SMILES | IC50 [4] [µM] | Activity [12] | Activity [24] | Activity (HCT-116 [1]) | Activity (HCT-116 [2]) [%] | Activity (HCT-116 [3]) | Activity (HCT-116 [5]) | Activity (HCT-116 [6]) [%] | fold change (FC) [7] | Activity (HT-29) | Activity [9] | inhibition (INH) (HCT-116 [10]) [%] | Ratio IC50 [11] | also measured
Cc1ncsc1-c1ccc(CNC(=O)[C@@H]2C[C@H](O)CN2C(=O)[C@H](C(C)C)N2Cc3ccccc3C2=O)c(OCCNC(=O)c2ccccc2NC(=O)[C@H](CCCCN)NC(=O)[C@@H]2CCCN2C(=O)Cc2cccc3ccccc23)c1 | 2.42 |  |  | Active | 32 | inactive | Non-Toxic | 78 | 1.1 | Non-Toxic | inactive | 22 | 2 | Activity [8]: inactive
Cc1ncsc1-c1ccc(CNC(=O)[C@@H]2C[C@@H](O)CN2C(=O)[C@H](C(C)C)N2Cc3ccccc3C2=O)c(OCCNC(=O)c2ccccc2NC(=O)[C@H](CCCCN)NC(=O)[C@@H]2CCCN2C(=O)Cc2cccc3ccccc23)c1 | 1.77 | Dose-Dependent Effect | Dose-Dependent Effect | Active | 62 | inactive | Non-Toxic | 68 | 1.5 | Non-Toxic | Active | 47 | 2 | Activity [13]: Active; Activity [14]: inactive; Activity [15]: inactive; Activity (HCT-116 [16]): 71%; Emax [17]: > 90%; Activity [18]: inactive; Activity (HCT-116 [19]): Active; Activity [20]: inactive; Activity [21]: inactive; Activity [22]: inactive; Activity (HCT-116 [23]): >92%; Emax [25]: > 90%; Activity (HCT-116 [26]): Dose-Dependent Effect; Activity (HCT-116 [27]): Active; Activity (HCT-116 [28]): Active; Activity [29]: inactive; Activity (HCT-116 [30]): Active; Activity (HCT-116 [31]): Dose-Dependent Effect; Emax [32]: > 90%; Emax [33]: > 60%
Cc1ncsc1-c1ccc(CNC(=O)[C@@H]2C[C@@H](O)CN2C(=O)[C@H](C(C)C)N2Cc3ccccc3C2=O)c(OCCOCCOCCOCCNC(=O)c2ccccc2NC(=O)[C@H](CCCCN)NC(=O)[C@@H]2CCCN2C(=O)Cc2cccc3ccccc23)c1 | 2 | Dose-Dependent Effect | Dose-Dependent Effect |  |  |  |  |  |  |  |  |  | 2 | 
Cc1ncsc1-c1ccc(CNC(=O)[C@@H]2C[C@@H](O)CN2C(=O)[C@H](C(C)C)N2Cc3ccccc3C2=O)c(OCCOCCNC(=O)c2ccccc2NC(=O)[C@H](CCCCN)NC(=O)[C@@H]2CCCN2C(=O)Cc2cccc3ccccc23)c1 | 2 | Dose-Dependent Effect | Dose-Dependent Effect |  |  |  |  |  |  |  |  |  | 2 | 

Now from value to molecule, other results behind:

IC50 [4] [µM] | Activity [12] | Activity [24] | SMILES | Activity (HCT-116 [1]) | Activity (HCT-116 [2]) [%] | Activity (HCT-116 [3]) | Activity (HCT-116 [5]) | Activity (HCT-116 [6]) [%] | fold change (FC) [7] | Activity (HT-29) | Activity [9] | inhibition (INH) (HCT-116 [10]) [%] | Ratio IC50 [11] | also measured
9.18 |  |  | NCCCC[C@H](NC(=O)[C@@H]1CCCN1C(=O)Cc1cccc2ccccc12)C(=O)Nc1ccccc1C(=O)O |  |  |  |  |  |  |  |  |  |  | 
4.38 |  |  | NCCCC[C@H](NC(=O)[C@@H]1CCCN1C(=O)Cc1cccc2ccccc12)C(=O)Nc1ccccc1C(N)=O |  |  |  |  |  |  |  |  |  |  | 
